In patent US20220160656A1, “INTRANASALLY ADMINISTERED ANTIHISTAMINES AND USES THEREOF” (DBBH, LLC, priority 2019, published 2022):

Columns and labels:
in vitro [1] = settings: human; for recovery at 120 min: pH 7.4; for Papp at 120 min: apical dosing
Description: (§1) EpiAirway tissues, plated in 24-well plates, and accompanying culture medium and assay buffer solutions, were purchased from MatTek Corporation (Ashland, Mass.). According to the EpiAirway AIR-100 Use Protocol provided by MatTek, the tissues were returned to culture immediately upon receipt. In a tissue culture hood, using sterile technique, 1.0 mL of cold medium (AIR-100-ASY) was dispensed into each well of the 6-well plate (n=3) and one tissue insert was transferred to each of the wells. The apical surface of the tissue was exposed to the air (no medium was added to the insert). The tissues were equilibrated overnight at 37° C. in a 5% CO2 incubator. The culture medium was then replaced with fresh, pre-warmed medium until use.
(§2) The unidirectional permeation experiment was conducted according to protocol 18APCIP2 and relevant SOPs of Absorption Systems. Prior to the permeability assay, the culture medium in the plate was aspirated; and ˜1 mL of Dulbecco's phosphate-buffered saline (DPBS) was added to the well to remove any remaining residue of culture medium from the underside of the insert. The tissues were transferred to a 24-well plate with DPBS (750 μL) in each well as receiver, and dosing solution (400 μL) was added to each insert. A 100 μL aliquot was immediately removed as the 0-minute donor sample. Receiver samples (200 μL) were collected at 30, 60, and 120 minutes, replaced with an equal volume of fresh pre-warmed blank buffer at 30 and 60 minutes. The donor side was sampled (100 μL) at 0 and 120 minutes. The assay plate was placed in a humidified CO2 incubator at 37° C. during the assay period.
(§3) After 120 minutes, the tissues were rinsed with DPBS and gently dried with tissue wipes after aspiration of the assay buffer. The insert membranes with tissues attached were carefully removed from the insert apparatus, placed in a tared centrifuge tube, and weighed.
(§4) The apparent permeability coefficient (Papp) and recovery were calculated as follows:
Papp=(dCr/dt)×Vr/(A×Cini) (1)
(§5) Recovery (%)=[((Cr,final×Vr)+(Cd,final×Vd))/(Cini×Vd)]×100 (2)
(§6) Recovery (%)=[((Cr,final×Vr)+(Cd,final×Vd)+(Tissue Accumulation))/(Cini×Vd)]×100 (3)
(§7) where, • dCr/dt is the slope of cumulative receiver concentration vs. time in μM s^−1; • Vr is the volume of the receiver compartment; • Vd is the volume of the donor compartment; • A is the diffusional area of the membrane; • Cini is the donor concentration at 0 minutes in μM; • CD,final is the donor concentration at 120 minutes in μM; • Cr,final is the receiver concentration at 120 minutes in μM.
(§8) With DPBS, pH 7.4 used on both the donor and receiver sides, permeability was initiated with addition of 0.4 mL of dosing solution into the inserts and of 0.75 mL of blank buffer into the wells of the assay plate. The assay was performed for 120 minutes in a humidified incubator at 37° C.

EpiAirway tissues = EpiAirway tissues after 120 minutes
Description: as §1, §2, §3, §4
Papp=(dCr/dt)×Vr/(A×Cini) (1)
as §5, §6, §7, §8

in vitro [2] = settings: pH 7.4
rhinovirus colds = settings: intranasal administration in a phosphate buffer vehicle, patients; cited from earlier work

Row | Structure (SMILES) | recovery at 120 min (in vitro [1]) | Papp at 120 min (in vitro [1]; pH 7.4, Papp Average ± SD, EpiAirway tissues, DPBS pH 7.4, diphenhydramine 100 μM, atenolol 100 μM, caffeine 50 μM co-dosed) | Papp at 120 min (in vitro [1]; pH 7.4, Papp R1, EpiAirway tissues, DPBS pH 7.4, 120 minutes, 37° C., replicate R1) | Papp at 120 min (in vitro [1]; pH 7.4, Papp R2, EpiAirway tissues, DPBS pH 7.4, replicate R2) | Papp at 120 min (in vitro [1]; pH 7.4, Papp R3, EpiAirway tissues, DPBS pH 7.4, replicate R3) | Tissue Accumulation Average ± SD (EpiAirway tissues) | Tissue Accumulation R1 (EpiAirway tissues; replicate R1) | Tissue Accumulation R3 (EpiAirway tissues; replicate R3) | recovery at 120 min, 100 μM (in vitro [2]) | therapeutic effect in reducing signs and symptoms of rhinovirus colds (rhinovirus colds)
1 | CC(C)NCC(O)COc1ccc(CC(N)=O)cc1 (stereo not drawn) [Atenolol] | 98.5% | – | – | – | – | – | – | – | – | –
2 | Cn1c(=O)c2c(ncn2C)n(C)c1=O [Caffeine] | 96.9% | 29.1 ×10⁻⁶ cm/s | 30.9 ×10⁻⁶ cm/s | 28.2 ×10⁻⁶ cm/s | 28.2 ×10⁻⁶ cm/s | – | – | – | – | –
3 | CN(C)CCOC(c1ccccc1)c1ccccc1 [Diphenhydramine] | 103% | – | – | – | – | 0.212 ± 0.0222 nmol/mg | 0.188 nmol/mg | 0.218 nmol/mg | 86.3% | no therapeutic effect
